Measured values: paper PMC6149971, “In Vivo and In Vitro Activities and ADME-Tox Profile of a Quinolizidine-Modified 4-Aminoquinoline: A Potent Anti-P. falciparum and Anti-P. vivax Blood-Stage Antimalarial” (Molecules : A Journal of Synthetic Chemistry and Natural …, 2017)

Columns and labels:
P. berghei = experiment: Prophylactic test, P. berghei/A. stephensi model; assay type: in vivo; details: 50 mg/kg per os for 4 days, infection by mosquito bites, days 5–9 post-infection
Method: (−)-AM1 was also tested in transmission-blocking and prophylactic studies using the P. berghei/A. stephensi model as described, with a few modifications.
For the prophylactic test, the experimental drugs were administered at 50 mg/kg per os for 4 consecutive days; 90 min after the last administration, mice were infected by 6–10 infective mosquito bites. Thick and thin Giemsa-stained smears were prepared and examined on days 5–10 post-infection to assess parasite density per μL of blood.

[1] = tested on: P. falciparum FCR3 (CQ-R); experiment: In vitro chemosensitivity assay (pLDH), FCR3 strain; assay type: cell-based; details: Plasmodium falciparum, FCR3; 72 h incubation, pLDH method, mean of 3 experiments; read-out: P. falciparum IC50, FCR3
[2] = Microsome stability and metabolism studies, mouse; assay type: in vitro ADME; design: key: +: Metabolic Products Detected In Vitro and In Vivo; ND: Not detectable; details: (−)-AM1 1 μM, at 30 min
Method: Samples from the metabolic stability and metabolism studies were analyzed under the following conditions: UPLC interfaced with a Premiere XE triple Quadrupole Waters for stability studies, and Bruker Daltonics Ion Trap HCT Ultra for metabolic studies. A gradient from 2% to 100% (Water, MeOH, 5 mM Ammonium Acetate) over 2 min (stability) or 12 min (metabolism) in a C18 BEH (dimensions 1 by 50 mm for stability and 2.1 by 100 mm for metabolism, 1.7 µm column, 45 °C temperature, flow rate 0.5 mL/min) was used. For stability studies, the detection was performed in MRM (ESI positive, Q1/Q3 330.16/152.00, Cone Voltage 45 V; Extractor 5 V; Capillary 3.4 kV), while for metabolism studies, analysis was performed in Auto MS/MS mode (ESI positive; Capillary 109 V; Dry Temp 350 °C; Nebulizer 30 psi; Dry gas 10 L/min; HV capillary 500 V; Mass Accu time 500 µs; Mass range MS scan 100–600 amu, MS/MS 50–450 amu).
For stability and metabolism studies, test compounds were dissolved in DMSO, diluted at the final concentration of 1 µM, and pre-incubated in duplicate for 10 min at 37 °C in potassium phosphate buffer, pH 7.4, 3 mM MgCl2, with rat, mouse, and human hepatic microsomes (Xenotech Europe, Pfungstadt, Germany) at the final concentration of 0.5 mg/mL. The reaction was then started by adding the cofactor mixture of NADP, Glc6P, and G6P-DH, in the presence of UDPGA 1 mM in human microsomes to promote glucuronide formation. Acetonitrile (with verapamil as internal standard) was added to the samples at the times time 0 and 30 min to stop the reaction. Samples were then centrifuged and the supernatants analysed and quantified by LC-MS/MS. Reference compounds of known metabolic stability, 7-ethoxycoumarin (7-EC) and propranolol, were used as controls.
The percentage of the area of test compounds remaining after 30 min incubation was calculated in respect to the area of compounds at time = 0 min. […] Samples were re-analyzed by acquiring the daughter scan of the potential metabolites found during the full scan acquisition.

P. falciparum D10 (CQ-S) [3] = experiment: Combination with dihydroartemisinin (isobologram), D10; assay type: cell-based; details: additive activity
Method: Figure 2 Isobologram analysis of the antimalarial activity of (−)-AM1 in combination with dihydroartemisinin (DHA) against D10 chloroquine-sensitive (CQ-S) (A) or W2 chloroquine-resistant (CQ-R) (B) P. falciparum strains. […]. DHA fractional IC50 values were calculated by dividing the IC50 of DHA combined with (−)-AM1 or CQ, respectively, by the IC50 of DHA alone, and plotted on the horizontal axis. The corresponding fractional (−)-AM1 or CQ IC50 values were calculated by dividing each fixed concentration by the IC50 of the (−)-AM1 or CQ alone, and plotted on the vertical axis. An isobologram close to the diagonal indicates an additive effect.
The antimalarial activity of (−)-AM1 was assayed in combination with dihydroartemisinin (DHA) against W-2 (CQ-R) or D10 (CQ-S) strains of P. falciparum by potentiation tests as previously described. CQ was used as a control. Isobolograms were constructed by plotting a pair of fractional IC50 values for each combination of (−)-AM1 or CQ with DHA [40].
An isobologram close to the diagonal indicates an additive effect.

CYP2C9 = CYP2C9 (Homo sapiens, UniProt P11712); experiment: in vitro
[4] = Metabolites in mouse plasma after oral treatment; assay type: in vivo; design: key: +: Metabolic Products Detected In Vitro and In Vivo; ND: Not detectable; details: after 50 mg/kg (−)-AM1 oral gavage, at 120 min
Method: A representative chromatogram in the mouse and the MS spectra are shown in Figure S1 (Supplementary Materials), while the proposed structures of metabolites in all the species, together with the retention times, are shown in Table 3. In the same table, the metabolites found in mouse plasma after 50 mg/kg oral treatment are included. The retention times and [M + H]^+ of the metabolites are the same for all three species.
The parent [M + H]^+ = 330 and the metabolites [M + H]^+ = 346 and [M + H]^+ = 344 were also detected in the mouse plasma samples collected after oral treatment of CD1 mice with 50 mg/kg of (−)-AM1 (Figure S4).
Samples from the metabolic stability and metabolism studies were analyzed under the following conditions: UPLC interfaced with a Premiere XE triple Quadrupole Waters for stability studies, and Bruker Daltonics Ion Trap HCT Ultra for metabolic studies. A gradient from 2% to 100% (Water, MeOH, 5 mM Ammonium Acetate) over 2 min (stability) or 12 min (metabolism) in a C18 BEH (dimensions 1 by 50 mm for stability and 2.1 by 100 mm for metabolism, 1.7 µm column, 45 °C temperature, flow rate 0.5 mL/min) was used. […]

P. falciparum D10 (CQ-S) [5] = tested on: P. falciparum D10 (CQ-S); design: method as in PMID 22901673; details: 72 h incubation, pLDH method, mean of 3 experiments; data already published; cited from earlier work
[6] = Pharmacokinetics in CD-1 mice after oral administration; details: mouse, in vivo
CYP1A2 = target: T1, CYP1A2 (Homo sapiens, UniProt P05177); experiment: in vitro
T1 sequence (P05177 1-516): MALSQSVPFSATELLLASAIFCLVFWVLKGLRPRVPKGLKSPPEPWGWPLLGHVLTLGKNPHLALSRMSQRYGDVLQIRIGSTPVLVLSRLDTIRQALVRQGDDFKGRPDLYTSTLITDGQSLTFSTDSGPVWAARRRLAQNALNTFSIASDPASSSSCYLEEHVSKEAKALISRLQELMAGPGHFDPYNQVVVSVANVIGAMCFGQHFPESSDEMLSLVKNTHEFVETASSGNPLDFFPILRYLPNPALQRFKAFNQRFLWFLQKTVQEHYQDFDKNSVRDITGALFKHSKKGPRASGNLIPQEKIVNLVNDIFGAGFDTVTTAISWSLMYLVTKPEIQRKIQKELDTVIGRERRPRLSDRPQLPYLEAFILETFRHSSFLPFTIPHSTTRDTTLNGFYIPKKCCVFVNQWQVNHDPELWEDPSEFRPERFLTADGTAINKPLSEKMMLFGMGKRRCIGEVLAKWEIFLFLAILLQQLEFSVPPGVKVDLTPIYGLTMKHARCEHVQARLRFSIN

Chain of CYP2C9 (P11712 whole entry): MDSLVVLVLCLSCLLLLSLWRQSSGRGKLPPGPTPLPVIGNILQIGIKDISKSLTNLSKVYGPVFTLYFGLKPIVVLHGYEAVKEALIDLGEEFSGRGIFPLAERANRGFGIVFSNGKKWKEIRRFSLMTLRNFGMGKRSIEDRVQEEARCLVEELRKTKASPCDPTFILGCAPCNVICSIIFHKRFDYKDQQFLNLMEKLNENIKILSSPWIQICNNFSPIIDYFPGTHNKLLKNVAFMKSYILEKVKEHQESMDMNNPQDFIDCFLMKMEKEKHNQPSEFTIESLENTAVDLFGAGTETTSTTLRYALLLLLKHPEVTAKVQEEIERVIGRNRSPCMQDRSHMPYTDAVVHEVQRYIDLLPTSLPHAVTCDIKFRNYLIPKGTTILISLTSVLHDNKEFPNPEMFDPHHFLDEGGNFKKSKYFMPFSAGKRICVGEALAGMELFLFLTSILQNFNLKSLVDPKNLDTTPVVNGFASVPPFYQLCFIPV

Clc1ccc2c(NC[C@@H]3CCCN4CCCC[C@H]34)ccnc2c1 [(−)-AM1, 7-chloro-N-(((1S,9aR)-octahydro-1H-quinolizin-1-yl)methyl)quinolin-4-amine]
parasitaemia versus control mice, prophylactic activity (P. berghei): no significant differences in parasitaemia | IC50 [1]: 23.3 nM | Metabolic products detected, in vitro microsomes, mouse [2]: + | FIC in combination with DHA (P. falciparum D10 (CQ-S) [3]): < 2 | inhibition at 3 µM (CYP2C9): < 5% | Metabolic products detected, in vivo plasma levels, mouse [4]: + | IC50 (P. falciparum D10 (CQ-S) [5]): 24 nM | dose proportionality of oral pharmacokinetics [6]: dose proportionality was displayed | inhibition at 3 µM (CYP1A2): < 5%
